Like-named read-outs stand apart in the source and are kept apart here.
Columns and labels:
[1] = system: Aedes albopictus clone C6/36 (ATCC CRL-1660); assay: Uptake of PS by mosquito cells in vitro and photo-inactivation; conditions: for state of sensitized cells after light exposure: white light, 4 hrs
Procedure: (§1) The insect cells were exposed to both dyes overnight and illuminated with white light under conditions similar to those described for mammalian and Leishmania cells. Images were captured first under differential interference (DIF) [A] and then under the filter sets for DAPI and Texas red [B]. [C] Chemical structure of cyanosione and rose Bengal.
as §1, with “Uptake of PS was assessed in insect cells, specifically Aedes albopictus clone C6/36 (ATCC CRL-1660). The” for “The”, “cells. […]” for “cells.”

Aedes mosquito larvae = assay: PDI assay of light-activated larvicidal activity (larva mobility); format: in vivo, A. aegypti and A. albopictus; conditions: for EC50: 2nd instar larvae, estimated from concentration vs. larvicidal activity curve, 16 hours PS exposure in dark, then white light, read-out: EC50 for PDT-mediated 2nd-instar larvicidal activities; for 2nd instar larvicidal activity (larva immobilization, % of dark control) compared with positive controls RB and CY: 1/1000 dilution of stock, white light up to 7 hours
Description: 2nd to 4th instar larvae of A. aegypti and A. albopictus (or Aedes mosquitoes in brief) were used in the experiments, as they are known vectors of Zika fever and other viral diseases. Colonies of both species were reared to provide the larvae of all instars under the approved conditions of a humidified “warm room” (˜28 C, ˜80% relative humidity).
The PDI assay to determine the larvicidal activities of the PS in Table 1 was based on procedures developed for mammalian and protozoa cells with modifications for mosquito larvae. Briefly, each PS was tested in 3-4 concentrations in 10-fold serial dilutions, starting with a 1/100 dilution of the stock solution (see Table 1 for the PS stock concentrations) as the highest. The solvent (DMSO) at these PS concentrations was ≤1%, which was pre-tested alone and shown to have no larvicidal activity. Larvae were PS-exposed (and not exposed as a control) in groups of 20 per 5 mL of water per well of a 6-well plate, in duplicate. All plates were foil-wrapped for overnight incubation under dark conditions in the “warm room.” After 16 hours of PS exposure, one of the duplicate 6-well plates was un-wrapped and the lid removed for exposure from the top with white light from a fluorescent tube-containing box (1-2 J/cm^2). The remaining 6-well plate of the duplicate was exposed under exactly the same conditions, but remained foil-wrapped as the dark control. Larvae were checked for mobility and readings recorded hourly for up to 7 hours. […] Each condition was repeated 4-5 times in independent experiments.

[2] = system: Culex pipiens quinquefasciatus 4th instar larvae; assay: Uptake and photo-inactivation in mosquito larvae kept in dye-containing water; format: in vivo
Procedure: Panel [A]: Culex pipiens quinquefasciatus 4th instar larvae exposed to rose Bengal (10 μg/mL) (˜20 larvae/5 mL water/well in 6-well plate) in dark for ˜24 hours followed by exposure to white light for ˜6 hrs at ˜2500 lux. Panels [B] and [C]: Phlebotomus duboscqi female (B) and male (C) adult flies (˜20 flies/screened paper cup) fed with 5% sucrose solution and 500 μL of 5 mg/mL rose bengal in a cotton ball for ˜20 hrs in the dark followed by exposure to ˜2500 lux of white light for 3 hrs. Duplicate samples were prepared and kept in the dark as controls. Rose bengal was taken up by the mosquito larvae and sand flies of both sexes.
Culex pipiens quinquefasciatus 4th instar larvae were exposed to rose Bengal or cyanosine (10 μg/mL) (˜20 larvae/5 mL water/well in 6-well plate) in the dark for ˜24 hours followed by exposure to white light for ˜6 hrs at ˜2500 lux; Phlebotomus duboscqi female (FIG. 1, panel B) and male (FIG. 1, panel C) adult flies (˜20 flies/screened paper cup) fed with 5% sucrose solution and 500 μL of 5 mg/ml rose bengal in a cotton ball for ˜20 hrs in the dark followed by exposure to ˜2500 lux of white light for 3 hrs. Duplicate samples were prepared and kept in the dark as controls.
The susceptibility of PS-sensitized insects to white light illumination varied with the species and the PSs used. […]

[3] = 1/10000 dilution of the stocks, light-activated

O=C([O-])c1c(Cl)c(Cl)c(Cl)c(Cl)c1-c1c2cc(I)c(=O)c(I)c-2oc2c(I)c([O-])c(I)cc12.[Na+].[Na+] [Rose Bengal]
state of sensitized cells kept in the dark ([1]; dark): remained adherent and intact
state of sensitized cells after light exposure [1]: cellular disintegration
state of sensitized cells after light exposure ([1]; listed as RB): became disintegrated
viability of 2nd to 4th instar larvae (Aedes mosquito larvae; [3]): reduced the viability of all instars to a variable extent
EC50 (Aedes mosquito larvae; Aedes): 250 nM
phototoxicity to mosquito larvae ([2]; 10 μg/mL, dark ~24 hours, then white light ~6 hrs at ~2500 lux): especially evident
difference of sensitized larvae between dark and light conditions ([2]; motility as viability readout): significant

Meso- Tetraphenylpor- phine disulphonic acid dihydrochoride [TPPS2]
2nd instar larvicidal activity (larva immobilization, % of dark control) compared with positive controls RB and CY (Aedes mosquito larvae): most similar to RB
effect on the other instars (3rd, 4th) (Aedes mosquito larvae; [3]): unscathed

Meso-tetra(4- n,n,n- trimethylanili- nium) porphine tetrachloride [TMAP]
2nd instar larvicidal activity (larva immobilization, % of dark control) compared with positive controls RB and CY (Aedes mosquito larvae): most similar to RB
effect on the other instars (3rd, 4th) (Aedes mosquito larvae; [3]): unscathed
EC50 (Aedes mosquito larvae): 100 nM

From patent US10070648B2, “Photodynamic insecticides” (ROSALIND FRANKLIN UNIVERSITY OF MEDICINE AND SCIENCE, priority 2016, dated 2018)
